{"source": "ChEMBL document CHEMBL1132305", "about": "“Effect of aromatic short-chain analogues of ceramide on axonal growth in hippocampal neurons” (1999)", "data": [{"species_on_record": "Rattus norvegicus", "assay": "Effect on the growth of axons of hippocampal neurons stimulated by basic fibroblast growth factor (bFGF), no. of axonal branch points/cell at 51 hr upon incubation with bFGF 1.52 0.09", "type": "functional", "values": [{"smiles": "CCCCCC(=O)N[C@@H](CO)[C@@H](O)/C=C/c1ccccc1", "No. of axonal branch points/cell": 1.22}, {"smiles": "CCCC(=O)N[C@@H](CO)[C@H](O)/C=C/c1ccccc1", "No. of axonal branch points/cell": 1.38}, {"smiles": "CCCC[C@H](C)[C@@H](OC(=O)C[C@H](CC(=O)O)C(=O)O)[C@@H](C[C@H](C)C[C@@H](O)CCCC[C@@H](O)C[C@H](O)[C@H](C)N)OC(=O)C[C@H](CC(=O)O)C(=O)O", "No. of axonal branch points/cell": 1.12}, {"smiles": "CC(=O)N[C@@H](CO)[C@H](O)/C=C/c1ccccc1", "No. of axonal branch points/cell": 1.3}, {"smiles": "CCCCCCC/C=C/[C@@H](O)[C@H](CO)NC(C)=O", "No. of axonal branch points/cell": 1.5}, {"smiles": "CCCCCCCC(=O)N[C@@H](CO)[C@H](O)/C=C/c1ccccc1", "No. of axonal branch points/cell": 1.4}, {"smiles": "CCCCCC(=O)N[C@@H](CO)[C@H](O)/C=C/c1ccccc1", "No. of axonal branch points/cell": 1.45}, {"smiles": "CCCCCCC/C=C/[C@H](O)[C@H](CO)NC(=O)CCCCC", "No. of axonal branch points/cell": 1.18}, {"smiles": "CCCCCCC/C=C/[C@@H](O)[C@H](CO)NC(=O)CCCCC", "No. of axonal branch points/cell": 1.3}]}]}
